# Test results published in patent US20110044973A1, “TREATMENT OF CYSTIC DISEASE WITH LYSOPHOSPHATIDIC ACID ANTAGONISTS” (priority 2009, published 2011).
# System: mpkCCDc14 cell line
# Assay: Short-circuit current electrophysiology in renal principal cells
# Type: cell-based, mouse
# Details: FIG. 4
# Text: Described herein is the method of short-circuit electrophysiology used for detailed examination of the nature of the ion channels stimulated in response to cyst fluid. These studies utilized mouse principal cells of the kidney cortical collecting duct, clone 4 (mpkCCDc14) cell line. These cells have the characteristics of the principal cell type found in the distal portion of the renal nephron. Principal cells often line renal cysts. […] This finding is in agreement with Granthan et al. However, the activation of other ion channels by the fluid was also discovered. When examined in real time, the nature of channel activity by the cyst was quite different than the activity seen in response to forskolin, as shown in FIG. 1. These studies indicate that there are components found in cyst fluid that stimulate multiple ion transporters, which together cause electrolyte and fluid secretion into the cyst lumen.
# Electrophysiological testing of effects NASPA on short circuit current. Cell preparations were pre-incubated with NASPA (10 μM) or diluent (DMSO) for 15 minutes prior to administration of 10% fetal bovine serum (FBS). FBS was administered serosally at time zero.
# Electrophysiological testing of effects VPC 32183 on LPA induced increase in short circuit current. […]
smiles,measurement,setting,value
CCCCCCCCCCCCCCCC(=O)N[C@@H](COP(=O)(O)O)C(=O)O [NASPA],effect on response to LPA added as part of fetal bovine serum (short circuit current),"NASPA 10 μM pre-incubated 15 minutes, 10% FBS added serosally at time zero, versus diluent (DMSO)",antagonized the LPA added as part of the fetal bovine serum
same,effect on short circuit current when first added,"NASPA 10 μM, 15 minutes pre-incubation before 10% FBS",appeared to act like an agonist when first added
